Results taken from patent EP0531640B1, “Antibiotic LL-E19020 Gamma” (F. HOFFMANN-LA ROCHE AG, priority 1991, dated 1993).
Values after ≈ are worked out from the molar mass of the structure shown.

How the values were obtained:
[1] = test system: non-enterococcal streptococci; assay: MIC by agar dilution, summary for non-enterococcal streptococci; assay type: cell-based; conditions: 18 h; text summary: relatively good activity against non-enterococcal streptococci
Method: The in vitro antibacterial activity of LL-E19020 Gamma is determined against a spectrum of gram positive and gram negative bacteria by a standard agar dilution method. Mueller-Hinton agar containing 5% sheep blood and two-fold decreasing concentrations of LL-E19020 Gamma is poured into petri dishes. The agar surfaces are inoculated with 1 to 5X10^4 colony forming units of bacteria by means of the Steers replicating device. The lowest concentration of antibiotic that inhibits growth of a bacterial strain after 18 hours incubation is recorded as the minimal inhibitory concentration for that strain.
• 1. Serial two-flow dilutions of drug are prepared in Mueller-Hinton broth in a range of 2560 µg/ml-0.15 µg/ml plus a solvent control. • 2. Two milliliters of drug dilution (10X) are added to sterile screw cap bottles to which 18 ml of Mueller-Hinton agar containing 5.6% defibrinated sheep blood is added. Final drug concentration ranges 256 µg/ml-0.015 µg/ml in agar containing 5% sheep blood. • 3. A few isolated colonies of each test organism are inoculated into 5 ml trypticase soy broth or brain heart infusion broth. The cultures are shaken at 35 °C. for 5 hours. • 4. Each culture is diluted 1:50 (10^-1.7) in Mueller-Hinton broth and applied to agar plates using a Steers replicator. Control plates should be seeded last to ensure that viable organisms are present throughout the procedure. […]

[2] = test system: Staphylococcus aureus Smith; assay: In vivo antibacterial activity, acute lethal infection in mice; conditions: for Survival Ratio 7 Days After Infection With S. aureus Smith: mice, 30 minutes after infection
Method: (§1) The in vivo antibacterial activity of antibiotic LL-E19020 Gamma is established by infecting female CD-1 mice from Charles River Laboratories, weighing 20±2 g each, intraperitoneally with either 2.0 X 10^2 CFU/0.5 ml Streptococcus pyogenes C203 suspended in broth or 2.8 X 10^6 CFU/0.5 ml Straphylococcus aureus Smith suspended in 5% hog gastric mucin. The mice were treated subcutaneously, 30 minutes after infection with the indicated dose of the test compound in 0.5 ml of 0.2% aqueous agar. Toxicity studies were performed administering the same treatment to uninfected mice.

[3] = test system: Streptococcus pyogenes C203; assay: as above; conditions: for Survival Ratio 7 Days After Infection With S. pyogenes C203: mice, 30 minutes after infection
Method: as §1

[4] = In vivo toxicity in uninfected mice; conditions: for In Vivo Toxicity: Survival Ratio 7 Days After Administration Of Single Subcutaneous Dose: uninfected mice
Method: as §1

[5] = Growth of chickens and efficiency of feed utilization; assay type: in vivo, Peterson X Arbor Acres chicks; conditions: 25 ppm in the diet
Method: In this test, one day old Peterson X Arbor Acres chicks are sorted into equal weight groups of 5 males and 5 females per cage. Cages are randomized to treatment groups with six replicates per treatment. The test compound is evaluated 25 ppm in the diet against chicks receiving a non-medicated diet and a diet containing 200 ppm of penicillin as a positive control.
The cages are weighed at day 1 and at day 14 and feed consumption is measured on weigh days. Feed and water are offered ad libitum and lighting and supplemental heat are provided continuously.
The poultry diet employed in the test is as follows:
The vitamin-amino acid premix in the above feed composition is prepared from the following formulation. The expressions of quantity relate to units per kilogram of the finished feed composition.

[6] = Single Subcutaneous Dose 0.5 MG/KG
[7] = Single Subcutaneous Dose 1 MG/KG
[8] = Single Subcutaneous Dose 2 MG/KG
[9] = Single Subcutaneous Dose 4 MG/KG
[10] = Single Subcutaneous Dose 8 MG/KG
[11] = Single Subcutaneous Dose 16 MG/KG

C/C=C\C=C\C1OC(O)(C(COC2CC(OC)C(OC3CC(OC)C(OC4CC(OC)C(O)C(C)O4)C(C)O3)C(C)O2)C(=O)NC/C=C/C=C(\C)C(OC)C(C)C2CC(O)C(/C=C/C=C/C=C/C(=O)O)O2)C(OC(=O)Cc2ccc(O)cc2)C(O)C1(C)C (centres unmarked) [LL-E19020 Gamma]
MIC [1]: 0.12 to 16 µg/mL (≈ 0.0966 to 12.9 µM) | Survival Ratio 7 Days After Infection With S. aureus Smith [2, 6]: 0/5 | Survival Ratio 7 Days After Infection With S. aureus Smith [2, 7]: 0/5 | Survival Ratio 7 Days After Infection With S. aureus Smith [2, 8]: 0/5 | Survival Ratio 7 Days After Infection With S. aureus Smith [2, 9]: 0/5 | Survival Ratio 7 Days After Infection With S. aureus Smith [2, 10]: 0/5 | Survival Ratio 7 Days After Infection With S. aureus Smith [2, 11]: 0/5 | Survival Ratio 7 Days After Infection With S. aureus Smith ([2]; Single Subcutaneous Dose 32 MG/KG): 0/5 | Survival Ratio 7 Days After Infection With S. aureus Smith ([2]; Single Subcutaneous Dose 64 MG/KG): 0/5 | ED50 ([2]; sc, acute lethal infection in mice, Staphylococcus aureus Smith, single subcutaneous dose, read-out: approximate ED50): > 64 mg/kg | Survival Ratio 7 Days After Infection With S. pyogenes C203 [3, 6]: 0/5 | Survival Ratio 7 Days After Infection With S. pyogenes C203 [3, 7]: 0/5 | Survival Ratio 7 Days After Infection With S. pyogenes C203 [3, 8]: 0/5 | Survival Ratio 7 Days After Infection With S. pyogenes C203 [3, 9]: 1/5 | Survival Ratio 7 Days After Infection With S. pyogenes C203 [3, 10]: 3/5 | Survival Ratio 7 Days After Infection With S. pyogenes C203 [3, 11]: 4/5 | ED50 ([3]; sc, acute lethal infection in mice, Streptococcus pyogenes C203, single subcutaneous dose, read-out: approximate ED50): 4 to 8 mg/kg | toxic symptoms ([4]; dosed subcutaneously at the same levels used in the protection study (0.5-64 mg/kg)): did not exhibit toxic symptoms | In Vivo Toxicity: Survival Ratio 7 Days After Administration Of Single Subcutaneous Dose ([4]; 0.5 MG/KG): 2/2 | In Vivo Toxicity: Survival Ratio 7 Days After Administration Of Single Subcutaneous Dose ([4]; 1 MG/KG): 2/2 | In Vivo Toxicity: Survival Ratio 7 Days After Administration Of Single Subcutaneous Dose ([4]; 2 MG/KG): 2/2 | In Vivo Toxicity: Survival Ratio 7 Days After Administration Of Single Subcutaneous Dose ([4]; 4 MG/KG): 2/2 | In Vivo Toxicity: Survival Ratio 7 Days After Administration Of Single Subcutaneous Dose ([4]; 8 MG/KG): 2/2 | In Vivo Toxicity: Survival Ratio 7 Days After Administration Of Single Subcutaneous Dose ([4]; 16 MG/KG): 2/2 | In Vivo Toxicity: Survival Ratio 7 Days After Administration Of Single Subcutaneous Dose ([4]; 32 MG/KG): 2/2 | In Vivo Toxicity: Survival Ratio 7 Days After Administration Of Single Subcutaneous Dose ([4]; 64 MG/KG): 2/2 | Weight Gain ([5]; chicks, day 1 to day 14): 342 g | Weight Gain, % improvement over control ([5]; chicks, day 1 to day 14): 6.5% | feed conversion ([5]; chicks, day 1 to day 14): 1.297 | feed conversion, % improvement over control ([5]; chicks, day 1 to day 14): 1.9% | efficiency of feed utilization, result in words ([5]; over unmedicated controls): increased the efficiency of feed utilization | weight gain of chicks, result in words ([5]; over unmedicated controls): improved weight gain of chicks
